Laboratory results from ChEMBL document CHEMBL4507276 (2021).

Key:
[1] = target: NT-3 growth factor receptor (Homo sapiens) (UniProt Q16288); conditions: Compound concentration 1000.0 nM
[2] = target: Mitogen-activated protein kinase 11 (Homo sapiens) (UniProt Q15759); experiment: MAPK11 Invitrogen selectivity data (BI); conditions: Compound concentration 3.0 uM
[3] = tested on: Tyrosine-protein kinase ABL1 (Homo sapiens), P00519 [Y253F]; experiment: ABL1 Y253F Invitrogen selectivity data (BI); conditions: Compound concentration 3.0 uM
[4] = target: Serine/threonine-protein kinase mTOR (Homo sapiens) (UniProt P42345); experiment: FRAP1 (MTOR) Invitrogen selectivity data (BI); conditions: Compound concentration 3.0 uM
[5] = target: Receptor-type tyrosine-protein kinase FLT3 (Homo sapiens) (UniProt P36888); experiment: FLT3 Invitrogen selectivity data (BI); conditions: Compound concentration 3.0 uM
[6] = target: Tyrosine-protein kinase Srms (Homo sapiens) (UniProt Q9H3Y6); experiment: SRMS Invitrogen selectivity data (BI); conditions: Compound concentration 3.0 uM
[7] = tested on: Epidermal growth factor receptor (Homo sapiens), P00533 [UNDEFINED MUTATION]; experiment: EGFRT790L858 Invitrogen selectivity data (BI); conditions: Compound concentration 3.0 uM
[8] = target: T1, Serine/threonine-protein kinase Sgk1 (Homo sapiens) (UniProt O00141); experiment: SGK Invitrogen selectivity data (BI); conditions: Compound concentration 3.0 uM
T1 sequence (whole entry): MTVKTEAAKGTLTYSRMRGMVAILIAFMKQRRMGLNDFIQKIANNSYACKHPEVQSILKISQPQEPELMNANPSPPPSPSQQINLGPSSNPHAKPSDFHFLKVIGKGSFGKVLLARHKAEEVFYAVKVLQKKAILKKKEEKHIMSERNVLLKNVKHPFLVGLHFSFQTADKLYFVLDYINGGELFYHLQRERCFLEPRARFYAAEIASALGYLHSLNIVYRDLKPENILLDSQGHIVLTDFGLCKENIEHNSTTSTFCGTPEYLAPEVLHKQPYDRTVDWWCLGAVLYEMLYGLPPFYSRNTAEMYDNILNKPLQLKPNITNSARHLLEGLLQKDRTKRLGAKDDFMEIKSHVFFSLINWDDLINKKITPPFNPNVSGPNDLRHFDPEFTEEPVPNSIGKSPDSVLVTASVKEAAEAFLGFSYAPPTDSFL

[9] = target: Dual specificity tyrosine-phosphorylation-regulated kinase 4 (Homo sapiens) (UniProt Q9NR20); experiment: DYRK4 Invitrogen selectivity data (BI); conditions: Compound concentration 3.0 uM
[10] = target: T2, Alpha-1A adrenergic receptor (Homo sapiens) (UniProt P35348); experiment: ALPHA1AH_ANTAG Cerep selectivity data (BI); conditions: filed as antagonist, Compound concentration 20.0 uM
T2 sequence (whole entry): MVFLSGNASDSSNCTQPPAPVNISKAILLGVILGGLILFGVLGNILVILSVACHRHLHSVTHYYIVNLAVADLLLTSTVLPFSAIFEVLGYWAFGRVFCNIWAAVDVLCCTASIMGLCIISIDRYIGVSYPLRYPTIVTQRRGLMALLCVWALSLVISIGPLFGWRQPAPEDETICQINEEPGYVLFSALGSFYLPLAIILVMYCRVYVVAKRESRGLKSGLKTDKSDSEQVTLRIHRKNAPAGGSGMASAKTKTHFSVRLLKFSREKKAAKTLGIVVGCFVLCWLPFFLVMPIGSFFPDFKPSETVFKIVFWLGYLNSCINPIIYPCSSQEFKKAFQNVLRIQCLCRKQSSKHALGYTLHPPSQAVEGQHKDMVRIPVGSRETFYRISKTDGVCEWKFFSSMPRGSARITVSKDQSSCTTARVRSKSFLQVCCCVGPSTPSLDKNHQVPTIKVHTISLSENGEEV

[11] = target: Interstitial collagenase (Homo sapiens) (UniProt P03956); experiment: MMP1 (H) Cerep selectivity data (BI); conditions: Compound concentration 20.0 uM
[12] = target: T3, 5-hydroxytryptamine receptor 1A (Homo sapiens) (UniProt P08908); experiment: 5HT1A/H Cerep selectivity data (BI); conditions: Compound concentration 20.0 uM
T3 sequence (whole entry): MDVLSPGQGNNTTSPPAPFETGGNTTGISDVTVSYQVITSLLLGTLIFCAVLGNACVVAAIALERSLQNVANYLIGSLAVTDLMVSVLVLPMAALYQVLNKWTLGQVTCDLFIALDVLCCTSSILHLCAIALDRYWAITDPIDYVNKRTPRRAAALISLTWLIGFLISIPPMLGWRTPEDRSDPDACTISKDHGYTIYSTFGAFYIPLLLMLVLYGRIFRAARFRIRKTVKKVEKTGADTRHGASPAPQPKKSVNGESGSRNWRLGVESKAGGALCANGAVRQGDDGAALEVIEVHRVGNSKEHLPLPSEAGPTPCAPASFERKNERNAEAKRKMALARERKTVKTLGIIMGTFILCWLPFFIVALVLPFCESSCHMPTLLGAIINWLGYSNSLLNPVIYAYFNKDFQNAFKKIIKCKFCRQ

[13] = target: Ribosomal protein S6 kinase alpha-6 (Homo sapiens) (UniProt Q9UK32); experiment: RPS6KA6 Invitrogen selectivity data (BI); conditions: Compound concentration 3.0 uM
[14] = target: RAF proto-oncogene serine/threonine-protein kinase (Homo sapiens) (UniProt P04049); experiment: RAF1_Y_D Invitrogen selectivity data (BI); conditions: Compound concentration 3.0 uM
[15] = tested on: Tyrosine-protein kinase JAK2 (Homo sapiens), O60674 [V617F]; experiment: JAK2 V617F Invitrogen selectivity data (BI); conditions: Compound concentration 3.0 uM

Measured: residual activity

Tyrosine-protein kinase JAK2 (Homo sapiens), O60674 [V617F], sequence (O60674 whole entry V617F): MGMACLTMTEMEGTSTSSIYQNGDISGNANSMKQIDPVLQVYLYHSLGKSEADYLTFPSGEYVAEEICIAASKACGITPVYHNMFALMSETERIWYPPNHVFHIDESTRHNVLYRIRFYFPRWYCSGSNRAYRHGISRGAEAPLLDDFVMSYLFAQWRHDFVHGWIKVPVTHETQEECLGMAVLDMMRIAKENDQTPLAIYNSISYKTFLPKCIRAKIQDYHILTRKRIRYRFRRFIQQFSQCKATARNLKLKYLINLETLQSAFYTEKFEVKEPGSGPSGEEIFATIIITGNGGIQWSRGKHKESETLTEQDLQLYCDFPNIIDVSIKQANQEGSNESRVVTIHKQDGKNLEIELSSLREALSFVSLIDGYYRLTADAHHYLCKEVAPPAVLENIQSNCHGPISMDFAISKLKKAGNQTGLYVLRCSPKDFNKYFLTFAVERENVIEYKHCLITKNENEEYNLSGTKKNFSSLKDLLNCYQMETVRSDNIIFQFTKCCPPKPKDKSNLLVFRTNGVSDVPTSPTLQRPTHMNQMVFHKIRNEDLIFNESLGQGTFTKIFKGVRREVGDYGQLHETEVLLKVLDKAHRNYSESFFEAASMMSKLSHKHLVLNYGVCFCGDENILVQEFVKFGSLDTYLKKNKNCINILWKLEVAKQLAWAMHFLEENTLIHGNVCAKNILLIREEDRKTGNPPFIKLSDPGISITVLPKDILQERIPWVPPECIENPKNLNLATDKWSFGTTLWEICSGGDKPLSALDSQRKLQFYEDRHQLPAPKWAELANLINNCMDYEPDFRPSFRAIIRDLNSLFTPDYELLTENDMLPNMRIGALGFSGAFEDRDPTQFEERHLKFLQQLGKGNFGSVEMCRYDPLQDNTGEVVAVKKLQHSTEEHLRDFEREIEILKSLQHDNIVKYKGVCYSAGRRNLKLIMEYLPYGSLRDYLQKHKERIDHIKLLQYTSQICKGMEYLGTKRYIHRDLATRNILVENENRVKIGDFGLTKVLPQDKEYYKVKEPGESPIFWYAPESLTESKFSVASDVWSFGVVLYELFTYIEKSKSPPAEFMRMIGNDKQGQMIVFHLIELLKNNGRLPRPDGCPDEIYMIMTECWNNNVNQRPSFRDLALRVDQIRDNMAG
Epidermal growth factor receptor (Homo sapiens), P00533 [UNDEFINED MUTATION], sequence (P00533 whole entry, looked up, change not shown): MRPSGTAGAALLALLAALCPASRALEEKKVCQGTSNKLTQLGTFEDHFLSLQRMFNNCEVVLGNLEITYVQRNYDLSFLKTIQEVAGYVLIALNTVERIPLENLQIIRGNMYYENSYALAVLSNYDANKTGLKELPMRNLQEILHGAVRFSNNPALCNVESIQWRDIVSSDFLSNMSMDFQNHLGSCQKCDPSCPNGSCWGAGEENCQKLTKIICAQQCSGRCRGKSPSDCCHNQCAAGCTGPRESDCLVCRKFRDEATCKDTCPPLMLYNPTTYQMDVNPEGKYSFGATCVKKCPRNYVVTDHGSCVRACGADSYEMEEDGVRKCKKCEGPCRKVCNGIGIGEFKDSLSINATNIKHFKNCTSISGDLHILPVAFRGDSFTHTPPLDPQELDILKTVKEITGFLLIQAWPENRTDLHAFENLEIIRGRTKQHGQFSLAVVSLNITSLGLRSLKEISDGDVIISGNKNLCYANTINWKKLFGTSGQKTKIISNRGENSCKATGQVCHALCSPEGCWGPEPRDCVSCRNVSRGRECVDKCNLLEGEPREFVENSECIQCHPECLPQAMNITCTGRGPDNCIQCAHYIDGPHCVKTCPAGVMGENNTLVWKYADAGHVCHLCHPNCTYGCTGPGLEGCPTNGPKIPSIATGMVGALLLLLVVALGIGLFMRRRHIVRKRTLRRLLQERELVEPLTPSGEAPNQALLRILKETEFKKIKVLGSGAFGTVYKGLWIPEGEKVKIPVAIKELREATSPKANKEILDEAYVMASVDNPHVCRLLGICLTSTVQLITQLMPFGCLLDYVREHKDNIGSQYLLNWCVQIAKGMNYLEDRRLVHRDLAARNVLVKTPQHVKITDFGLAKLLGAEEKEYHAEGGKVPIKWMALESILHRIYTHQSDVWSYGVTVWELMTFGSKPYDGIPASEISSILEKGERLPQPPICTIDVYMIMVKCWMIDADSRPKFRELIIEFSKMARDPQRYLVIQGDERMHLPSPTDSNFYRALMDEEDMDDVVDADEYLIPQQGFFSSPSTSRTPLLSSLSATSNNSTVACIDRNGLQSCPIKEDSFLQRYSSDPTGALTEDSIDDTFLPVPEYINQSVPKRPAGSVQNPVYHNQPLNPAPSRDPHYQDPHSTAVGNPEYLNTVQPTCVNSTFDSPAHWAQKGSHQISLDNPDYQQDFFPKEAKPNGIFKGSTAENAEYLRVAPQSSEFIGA
NT-3 growth factor receptor (Homo sapiens), sequence (Q16288 32-839 limits assumed): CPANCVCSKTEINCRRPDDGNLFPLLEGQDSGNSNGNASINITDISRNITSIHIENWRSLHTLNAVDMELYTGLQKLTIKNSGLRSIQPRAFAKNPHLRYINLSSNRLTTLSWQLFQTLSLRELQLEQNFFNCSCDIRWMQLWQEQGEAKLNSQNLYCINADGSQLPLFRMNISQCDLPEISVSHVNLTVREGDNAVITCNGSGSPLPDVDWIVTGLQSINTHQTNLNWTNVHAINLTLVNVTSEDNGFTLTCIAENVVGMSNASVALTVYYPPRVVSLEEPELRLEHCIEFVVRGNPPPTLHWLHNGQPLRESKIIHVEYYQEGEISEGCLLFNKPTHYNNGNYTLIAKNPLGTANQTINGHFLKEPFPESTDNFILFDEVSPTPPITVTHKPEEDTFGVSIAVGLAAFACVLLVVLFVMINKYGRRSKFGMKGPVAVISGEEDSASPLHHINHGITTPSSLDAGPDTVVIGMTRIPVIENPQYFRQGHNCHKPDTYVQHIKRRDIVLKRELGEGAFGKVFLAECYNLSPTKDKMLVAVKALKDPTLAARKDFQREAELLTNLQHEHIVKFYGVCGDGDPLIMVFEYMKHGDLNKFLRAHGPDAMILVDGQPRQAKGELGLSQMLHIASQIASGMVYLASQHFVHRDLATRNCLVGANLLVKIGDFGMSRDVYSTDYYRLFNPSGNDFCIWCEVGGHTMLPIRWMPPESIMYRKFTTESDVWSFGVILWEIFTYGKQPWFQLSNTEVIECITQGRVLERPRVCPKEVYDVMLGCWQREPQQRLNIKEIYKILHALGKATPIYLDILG
Mitogen-activated protein kinase 11 (Homo sapiens), sequence (Q15759 whole entry): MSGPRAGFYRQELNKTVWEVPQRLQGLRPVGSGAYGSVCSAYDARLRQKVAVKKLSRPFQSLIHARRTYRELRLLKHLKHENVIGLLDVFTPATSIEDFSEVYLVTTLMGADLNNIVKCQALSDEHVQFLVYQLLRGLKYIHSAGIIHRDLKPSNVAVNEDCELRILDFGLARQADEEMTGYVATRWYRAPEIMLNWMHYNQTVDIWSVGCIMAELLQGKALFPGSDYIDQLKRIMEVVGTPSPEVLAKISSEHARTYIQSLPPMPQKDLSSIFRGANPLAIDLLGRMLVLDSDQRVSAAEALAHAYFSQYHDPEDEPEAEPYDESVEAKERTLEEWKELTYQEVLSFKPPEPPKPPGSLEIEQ
RAF proto-oncogene serine/threonine-protein kinase (Homo sapiens), sequence (P04049 whole entry): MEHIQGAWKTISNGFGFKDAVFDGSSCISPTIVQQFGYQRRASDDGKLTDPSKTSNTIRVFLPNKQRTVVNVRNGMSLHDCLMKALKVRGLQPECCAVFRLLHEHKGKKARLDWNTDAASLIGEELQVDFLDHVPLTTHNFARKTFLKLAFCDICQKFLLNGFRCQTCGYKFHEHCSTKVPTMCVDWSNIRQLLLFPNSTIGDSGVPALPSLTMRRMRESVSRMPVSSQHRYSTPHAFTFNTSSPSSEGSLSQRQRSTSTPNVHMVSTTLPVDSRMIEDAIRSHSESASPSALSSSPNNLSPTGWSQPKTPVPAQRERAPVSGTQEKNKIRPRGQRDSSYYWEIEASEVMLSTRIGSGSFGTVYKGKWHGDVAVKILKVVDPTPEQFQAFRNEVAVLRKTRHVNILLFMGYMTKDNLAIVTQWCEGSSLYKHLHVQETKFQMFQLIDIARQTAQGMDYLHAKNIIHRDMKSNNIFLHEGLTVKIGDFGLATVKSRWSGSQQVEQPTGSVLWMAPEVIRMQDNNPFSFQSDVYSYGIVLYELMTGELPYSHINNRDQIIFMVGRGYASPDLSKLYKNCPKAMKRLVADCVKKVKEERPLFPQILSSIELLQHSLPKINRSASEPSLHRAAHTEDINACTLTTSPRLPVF
Interstitial collagenase (Homo sapiens), sequence (P03956 whole entry): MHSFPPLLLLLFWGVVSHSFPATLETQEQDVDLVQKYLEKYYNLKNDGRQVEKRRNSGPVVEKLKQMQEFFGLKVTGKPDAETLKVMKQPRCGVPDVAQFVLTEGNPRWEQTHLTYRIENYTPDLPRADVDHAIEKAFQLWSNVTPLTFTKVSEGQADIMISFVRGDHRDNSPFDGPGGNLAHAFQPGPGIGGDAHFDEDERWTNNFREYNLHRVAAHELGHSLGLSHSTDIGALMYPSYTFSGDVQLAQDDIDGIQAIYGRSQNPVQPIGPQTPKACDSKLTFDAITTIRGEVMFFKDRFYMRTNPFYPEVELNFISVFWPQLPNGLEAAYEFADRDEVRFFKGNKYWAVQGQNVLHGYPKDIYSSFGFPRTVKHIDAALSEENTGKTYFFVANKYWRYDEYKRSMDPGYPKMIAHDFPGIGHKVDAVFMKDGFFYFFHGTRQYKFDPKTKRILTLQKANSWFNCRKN

CN(C)C(=O)Cn1cc(-c2nc(C3(c4ccc(-c5cnc(N)nc5)cc4)CC3)no2)cn1 [BI 0153]
inactive: [1] 97%

CN(C)C(=O)Cn1cc(-c2nc([C@@](C)(c3ccc(-c4cnc(N)nc4)cc3)C3CC3)no2)cn1 [BI 665915]
inactive: [2] 93% | [3] 80% | [4] 104% | [5] 89% | [6] 98.5% | [7] 101% | [8] 99% | [9] 99.5% | [10] 99% | [11] 97% | [12] 77% | [13] 105% | [14] 98% | [15] 96%
